Data: patent US20060134131A1, “Cosmetic or pharmaceutical composition comprising a genus halopteris brown alga extract” (priority 2002, published 2006)
Where two headings read alike, the source gives them in different places.

Test system: pre-adipocytes 3T3-L1
Assay: Differentiation of 3T3-L1 pre-adipocytes into adipocytes, lipid content by Oil Red colouring
Format: cell-based
Settings: Mus musculus, 3T3-L1, retinoic acid 10 μM
Procedure: The study on the effect of this extract on a line of pre-adipocytes ET3-L1 induced as adipocytes is carried out according to a protocol which is known and which is in particular described in the document which appeared in Annu. Rev. Biochem., 1995, 64: 345-373, entitled “Transcriptional regulation of gene expression during adipocyte differentiation”, the authors of which were MacDougald O A and Lane M D.
This protocol is set out briefly below. The pre-adipocyte cells of the line e=3T3-L1 were kept in culture in a Dulbelcco modified Eagle medium (DMEM) containing 2 mM of glutamine, 4.5 g/l of glucose, 0.11 g/l of sodium pyruvate, 10% of calf serum (SVD) and antibiotics (50 U penicillin and 50 μg of streptomycin per ml of medium). Their differentiation as adipocytes was brought about in the following manner: firstly, the pre-adipocyte cells were cultivated with confluence for two days. At the time which will be referred to below as D0, the culture medium was replaced by a differentiation inducing medium (DIM) composed of DMEM containing 10% foetal calf serum (FCS) with the addition of 0.25 mM of isobutyl methyl xanthine (IBMX), 0.25 μM of dexamethasone and 1.74 μM of insulin. After two days of incubation, and therefore at time D2, the induction medium was delicately withdrawn and replaced by a new culture medium containing 10% of FCS and 0.174 μM of insulin. Next the culture medium was renewed every two days.
After seven days of culture, the lipid content of the pre-adipocyte cells was assessed by colouring with Oil Red. More precisely, the pre-adipocyte cells were fixed to 3.7% formaldehyde and then incubated for ten minutes with a Oil Red colorant solution (0.5% in an isopropanol/water mixture). After 10 minutes, the cellular carpet was rinsed with water and the pre-adipocyte cells were lysed with pure isopropanol. The optical density (OD) of the medium was measured at 540 nm.
The extract of the brown alga Halopteris scoparia was tested on 3T3-L1 cells during the induction phase by means of the DIM, which therefore commenced at day D0.
In the first experimental series, this extract was added from the very start of the differentiation (at time D0) and kept present in the medium until the cells were fixed (at time D7), by renewal every two days (that is to say at time D2 and D4). The extract was tested at the following three concentrations: 0.4%, 1% and 2.5%. In the same way, use was made of a sample of 10 μM retinoic acid, which is known for inhibiting the differentiation of pre-adipocytes into adipocytes, as is in particular described in the article which appeared in Differentiation, 1990, 45:119-127, entitled “The molecular basis for inhibition of adipose conversion of 3T3-L1 cells by retinoic acid”, the authors of which were Stone R L and Berlnohr D A. […]

SMILES: CC1=C(/C=C/C(C)=C/C=C/C(C)=C/C(=O)O)C(C)(C)CCC1 [Retinoic Acid, retinoic acid]
- inhibition at 10 µM (first experimental series, five manipulations, read-out: % inhibition of the differentiation): 82 ± 21%
- inhibition at 10 µM (presence from D0 to D2, read-out: % inhibition of differentiation): 40 ± 5%
- inhibition at 10 µM (presence from D0 to D7, second series, read-out: % inhibition of differentiation): 51 ± 3%
- inhibition at 10 µM (presence from D2 to D7, read-out: % inhibition of differentiation): 3 ± 2%
